Among the test systems are ACHN renal; K-562 leukemia; KM12 colon; SK-MEL-28 melanoma; EKVX NSCLC; M14 melanoma; CCRF-CEM leukemia; SK-MEL-2 melanoma; HCT-116 colon; DU-145 prostate.
What all share (experiment): NCI tumour cell line growth inhibition, 48 h

Experimental findings from PubChem BioAssay (NCI) are described below.

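Growth conditions: 96-well plates. Treatment: test compound, 48 hours, 5 concentrations. Analysis: linear interpolation between bracketing concentrations; unreached endpoints set to highest concentration. Here, GI50 denotes the concentration required for 50% inhibition of growth. TGI marks complete inhibition of growth.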 Bounds are passed on as bounds.

On to `COc1ccccc1NC(=O)N/C(N)=N/c1nc2ccccc2s1`, for which the GI50 is 0.327 µM in the experiment on ACHN renal; 0.0351 µM in the experiment with K-562 leukemia; 0.0505 µM in the experiment with KM12 colon; 30.7 µM in the experiment with SK-MEL-28 melanoma; 0.409 µM in the experiment on EKVX NSCLC; 0.0788 µM in the experiment on M14 melanoma. The GI50 in the experiment on CCRF-CEM leukemia is 0.111 µM; in the experiment with SK-MEL-2 melanoma, 0.446 µM; in the experiment with HCT-116 colon, 0.0497 µM; in the experiment on DU-145 prostate, 0.159 µM. The TGI with ACHN renal, with K-562 leukemia, with KM12 colon, in the experiment with SK-MEL-28 melanoma, with EKVX NSCLC and in the experiment with M14 melanoma was > 100 µM in each case. The TGI in the experiment on CCRF-CEM leukemia, in the experiment with SK-MEL-2 melanoma, in the experiment with HCT-116 colon and in the experiment on DU-145 prostate was > 100 µM throughout.

As for `CC(C)(C)OC(=O)N(CCCn1c2c(c3ccccc3c1=O)C(=O)c1ccccc1-2)CCN(CCCn1c2c(c3ccccc3c1=O)C(=O)c1ccccc1-2)C(=O)OC(C)(C)C`, the GI50 in the experiment on ACHN renal was 11.2 µM; in the experiment with K-562 leukemia, 21.3 µM; in the experiment on KM12 colon, > 50 µM; in the experiment on SK-MEL-28 melanoma, 37 µM; in the experiment on EKVX NSCLC it was > 50 µM; in the experiment with M14 melanoma, > 50 µM. Also, the GI50 in the experiment on CCRF-CEM leukemia is 4.93 µM; with SK-MEL-2 melanoma, > 50 µM; with HCT-116 colon it was 14.1 µM; in the experiment with DU-145 prostate, > 50 µM. The TGI in the experiment with ACHN renal is 48.9 µM; in the experiment on K-562 leukemia, > 50 µM; with KM12 colon, > 50 µM; in the experiment with SK-MEL-28 melanoma it was > 50 µM; in the experiment with EKVX NSCLC it was > 50 µM; in the experiment with M14 melanoma, > 50 µM. For the same compound, the TGI with CCRF-CEM leukemia, in the experiment on SK-MEL-2 melanoma, with HCT-116 colon and with DU-145 prostate was > 50 µM in each case.

For the compound `C[C@]1(O)CC(=O)[C@]2(O)C3=C(C=C[C@]2(O)C1)C(=O)c1c(O)cccc1C3=O`, the GI50 in the experiment with ACHN renal was 0.5 µM; in the experiment with K-562 leukemia, 0.706 µM; in the experiment with KM12 colon, 14 µM; with SK-MEL-28 melanoma, 2.11 µM; in the experiment on EKVX NSCLC, 11.6 µM; in the experiment with M14 melanoma, 1.7 µM. For the same compound, the GI50 in the experiment with CCRF-CEM leukemia is 0.342 µM; with SK-MEL-2 melanoma it was 2.47 µM; in the experiment with HCT-116 colon, 0.649 µM; in the experiment on DU-145 prostate it was 1.75 µM. In addition, the TGI worked out at 1.73 µM in the experiment with ACHN renal; 5.28 µM in the experiment with K-562 leukemia; 40.7 µM with KM12 colon; 4.25 µM in the experiment on SK-MEL-28 melanoma; 23.8 µM with EKVX NSCLC; 3.45 µM in the experiment with M14 melanoma. Further, the TGI with CCRF-CEM leukemia is 3.33 µM; in the experiment with SK-MEL-2 melanoma, 5.56 µM; in the experiment on HCT-116 colon it was 2.56 µM; with DU-145 prostate it was 3.24 µM.

For `COc1ccc(-n2nc(C)c3c(Nc4ccc(NC(=O)Nc5cc(C(F)(F)F)ccc5F)cc4)ncnc32)cc1`, the GI50 was 2.92 µM in the experiment on ACHN renal; 2.99 µM with K-562 leukemia; 2.55 µM with KM12 colon; 2.51 µM in the experiment on SK-MEL-28 melanoma; 2.25 µM in the experiment on EKVX NSCLC; 1.9 µM in the experiment with M14 melanoma. The GI50 is 2.94 µM in the experiment with CCRF-CEM leukemia, 2.35 µM with SK-MEL-2 melanoma, 2.81 µM in the experiment on HCT-116 colon and 3.65 µM in the experiment on DU-145 prostate. In addition, the TGI in the experiment with ACHN renal was 42.9 µM; in the experiment on K-562 leukemia, > 100 µM; with KM12 colon, 7.32 µM; with SK-MEL-28 melanoma, 6.29 µM; with EKVX NSCLC, 5.88 µM; in the experiment with M14 melanoma it was 4.64 µM. Moreover, the TGI with CCRF-CEM leukemia was > 100 µM; with SK-MEL-2 melanoma, 4.91 µM; in the experiment on HCT-116 colon it was 10.3 µM; in the experiment on DU-145 prostate, > 100 µM.

Turning to `COc1ccc(S(=O)(=O)N2CCCCC2)cc1NC(=O)c1[nH]c(C)c2c1CCCCC2=O`, the GI50 in the experiment on ACHN renal was 2.34 µM; in the experiment on K-562 leukemia it was 1.75 µM; in the experiment with KM12 colon, 4.36 µM; in the experiment on SK-MEL-28 melanoma, 2.72 µM; in the experiment with EKVX NSCLC, 3.78 µM; with M14 melanoma, 1.49 µM. Further, the GI50 is 3.14 µM with CCRF-CEM leukemia, 2.4 µM in the experiment on SK-MEL-2 melanoma, 1.32 µM with HCT-116 colon and 7.56 µM with DU-145 prostate. For the same compound, the TGI with ACHN renal, in the experiment on K-562 leukemia, in the experiment on KM12 colon, in the experiment on SK-MEL-28 melanoma, in the experiment on EKVX NSCLC and with M14 melanoma was > 100 µM in each case. Also, the TGI in the experiment on CCRF-CEM leukemia is > 100 µM; in the experiment on SK-MEL-2 melanoma, 31 µM; in the experiment with HCT-116 colon, 19.3 µM; with DU-145 prostate it was > 100 µM.

Regarding `C=C(C)[C@@H]1CC[C@]2(c3ncc(C)o3)CC[C@]3(C)[C@H](CC[C@@H]4[C@@](C)(CCC#N)[C@H](C(=C)C)CC[C@]43C)[C@@H]12`, the GI50 with ACHN renal was 4.65 µM; with K-562 leukemia, 2.99 µM; with KM12 colon, 3.89 µM; with SK-MEL-28 melanoma, 5.42 µM; in the experiment on EKVX NSCLC, 3.13 µM; in the experiment on M14 melanoma, 7.8 µM. Also, the GI50 in the experiment with CCRF-CEM leukemia is 2.93 µM; in the experiment on SK-MEL-2 melanoma it was 16.4 µM; with HCT-116 colon, 4.41 µM; in the experiment with DU-145 prostate it was 3.54 µM. Further, the TGI with ACHN renal is 17.2 µM; in the experiment on K-562 leukemia it was > 100 µM; in the experiment with KM12 colon, 15.1 µM; in the experiment with SK-MEL-28 melanoma, 18.4 µM; with EKVX NSCLC it was 12.6 µM; in the experiment with M14 melanoma, 24.2 µM. Also, the TGI in the experiment on CCRF-CEM leukemia was 10.2 µM; in the experiment on SK-MEL-2 melanoma, 33.7 µM; in the experiment on HCT-116 colon, 16.4 µM; in the experiment with DU-145 prostate, 13.2 µM.

As to `CNC1=C(Br)C(=O)C2=C(C1=O)C1C3=C(C(=O)C=CC3=O)C2c2ccccc21` (stereo not given), the GI50 was 2.1 µM in the experiment on ACHN renal; 2.65 µM in the experiment with K-562 leukemia; 14.4 µM with KM12 colon; 3.39 µM in the experiment on SK-MEL-28 melanoma; 1.94 µM with EKVX NSCLC; 1.98 µM with M14 melanoma. Further, the GI50 with CCRF-CEM leukemia was 0.472 µM; in the experiment with SK-MEL-2 melanoma, 11 µM; with HCT-116 colon it was 1.44 µM; in the experiment with DU-145 prostate, 4.06 µM. Besides, the TGI is 3.9 µM in the experiment with ACHN renal; > 23.7 µM with K-562 leukemia; 48.7 µM in the experiment on KM12 colon; > 24.7 µM with SK-MEL-28 melanoma; 3.7 µM in the experiment with EKVX NSCLC; 11.5 µM in the experiment with M14 melanoma. Besides, the TGI is > 100 µM with CCRF-CEM leukemia, > 28.4 µM in the experiment on SK-MEL-2 melanoma, 2.86 µM with HCT-116 colon and 10.3 µM in the experiment on DU-145 prostate.
